Reference: ChEMBL document CHEMBL1201862, “PubChem BioAssay data set” (2004)
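Interpolation was linear, between the two tested concentrations surrounding the appropriate level; five concentrations were tested over 48 hours in 96-well plates. GI50 = concentration required for 50% inhibition of growth.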 The source made the active and inactive calls. Cut-off read from the data, not from the text of the source: active = GI50 up to about 1.1 µM and inactive = higher.

Legend:
Assay in all cases: growth of human tumour cells (NCI), 48 h
NCI-H522 = tested on: NCI-H522
SNB-75 = tested on: SNB-75
K562 = tested on: K562
SF-539 = tested on: SF-539
SF-295 = tested on: SF-295
SK-MEL-28 = tested on: SK-MEL-28
UO-31 = tested on: UO-31
HOP-92 = tested on: HOP-92
RXF 393 = tested on: RXF 393
A498 = tested on: A498
SN12C = tested on: SN12C
OVCAR-3 = tested on: OVCAR-3
HL-60 = tested on: HL-60
M14 = tested on: M14
UACC-62 = tested on: UACC-62
ACHN = tested on: ACHN
A549 = tested on: A549
IGROV-1 = tested on: IGROV-1
MDA-MB-435 = tested on: MDA-MB-435
DU-145 = tested on: DU-145

SMILES | GI50 (NCI-H522) | GI50 (SNB-75) | GI50 (K562) | GI50 (SF-539) | GI50 (SF-295) | GI50 (SK-MEL-28) | GI50 (UO-31) | GI50 (HOP-92) | GI50 (RXF 393) | GI50 (A498) | GI50 (SN12C) | GI50 (OVCAR-3) | GI50 (HL-60) | GI50 (M14) | GI50 (UACC-62) | GI50 (ACHN) | GI50 (A549) | GI50 (IGROV-1) | GI50 (MDA-MB-435) | GI50 (DU-145)
COC(=O)c1cccc2cccc(C(=O)Nc3ccc(Cl)cc3)c12 | 13.7 µM (inactive) | > 100 µM (inactive) | 0.142 µM (active) | 21.3 µM (inactive) | 1.72 µM (inactive) | > 100 µM (inactive) | 2.94 µM (inactive) | > 69.7 µM (inactive) | > 100 µM (inactive) | 36.1 µM (inactive) | > 100 µM (inactive) | 29.2 µM (inactive) | 0.706 µM (active) | 0.951 µM (active) | 0.153 µM (active) | 2.92 µM (inactive) | > 78.2 µM (inactive) |  |  | 
C#CCN(N=O)C(=O)NCCCCC(NC(=O)OCc1ccccc1)C(=O)OCc1ccccc1 (stereo not given) | 15.3 µM (inactive) | 46.3 µM (inactive) | 23.3 µM (inactive) | 16.3 µM (inactive) | > 100 µM (inactive) | 49.5 µM (inactive) | > 100 µM (inactive) | 20.3 µM (inactive) | 25.4 µM (inactive) | > 100 µM (inactive) | 37.8 µM (inactive) | 25.5 µM (inactive) | 29.9 µM (inactive) | 27 µM (inactive) | 30.6 µM (inactive) | 61.5 µM (inactive) |  | 76 µM (inactive) |  | 
O=C1CCCc2ccc([N+](=O)[O-])c(O)c21 | 66.8 µM (inactive) | 45.6 µM (inactive) | > 100 µM (inactive) | > 100 µM (inactive) | > 100 µM (inactive) | > 100 µM (inactive) | 34.8 µM (inactive) | 68.1 µM (inactive) | 55.1 µM (inactive) | 50.7 µM (inactive) | 65 µM (inactive) | > 100 µM (inactive) | 92.5 µM (inactive) | > 100 µM (inactive) | 54.6 µM (inactive) | 48.9 µM (inactive) | 96.2 µM (inactive) | 82.6 µM (inactive) |  | 
Cc1noc2cccc(O)c12 | > 100 µM (inactive) | > 100 µM (inactive) | > 100 µM (inactive) | > 100 µM (inactive) | > 100 µM (inactive) | > 100 µM (inactive) | > 100 µM (inactive) | > 100 µM (inactive) | > 100 µM (inactive) | > 100 µM (inactive) | > 100 µM (inactive) | > 100 µM (inactive) | > 100 µM (inactive) | > 100 µM (inactive) | > 100 µM (inactive) | > 100 µM (inactive) | > 100 µM (inactive) | > 100 µM (inactive) |  | 
COc1ccc(OC)c(NC(=O)C(=O)Nn2c(S)nc3ccccc3c2=O)c1 | > 100 µM (inactive) | > 100 µM (inactive) | > 100 µM (inactive) | > 100 µM (inactive) | > 100 µM (inactive) | > 100 µM (inactive) | > 100 µM (inactive) | > 100 µM (inactive) | > 100 µM (inactive) | > 100 µM (inactive) | > 100 µM (inactive) | > 100 µM (inactive) | > 100 µM (inactive) | > 100 µM (inactive) | > 100 µM (inactive) | > 100 µM (inactive) | > 100 µM (inactive) | 88.1 µM (inactive) | > 100 µM (inactive) | 
CC1(C)c2ccccc2C(=O)C12CCC(=O)CC2 | > 100 µM (inactive) | 0.504 µM (active) | > 100 µM (inactive) | > 100 µM (inactive) | > 100 µM (inactive) | > 100 µM (inactive) | 33.7 µM (inactive) |  | 12.4 µM (inactive) |  | > 100 µM (inactive) |  | > 100 µM (inactive) | > 100 µM (inactive) | > 100 µM (inactive) | > 100 µM (inactive) | > 100 µM (inactive) | > 100 µM (inactive) |  | > 100 µM (inactive)
CCOC(=O)c1nc2ccc(C(F)(F)F)cc2nc1NCc1ccc(OC)cc1 | 11.9 µM (inactive) | 85.9 µM (inactive) | 39.5 µM (inactive) | > 100 µM (inactive) | > 100 µM (inactive) |  | > 100 µM (inactive) | 47.5 µM (inactive) | > 100 µM (inactive) | 58.6 µM (inactive) |  | 71.8 µM (inactive) |  | > 100 µM (inactive) | > 100 µM (inactive) | 92.5 µM (inactive) | 49.4 µM (inactive) | > 100 µM (inactive) | > 100 µM (inactive) | 
C=C(c1ccccc1N)[C@@]1(O)C[C@H](/C(=C\C)CO)C[C@@H]1NCc1ccccc1 | 17.1 µM (inactive) | 10.8 µM (inactive) | 18.6 µM (inactive) | 16.3 µM (inactive) | 16.9 µM (inactive) | 18.3 µM (inactive) | 17.4 µM (inactive) | 3.78 µM (inactive) | 16.7 µM (inactive) | 82.6 µM (inactive) | 32 µM (inactive) | 18.2 µM (inactive) | 13.3 µM (inactive) | 15.2 µM (inactive) | 28.6 µM (inactive) | 36.8 µM (inactive) | 37 µM (inactive) | 31.9 µM (inactive) |  | 
Cc1ccccc1NC(=O)C(=O)C(C#N)c1ccc(Cl)cc1 (stereo not given) | 50.7 µM (inactive) | > 100 µM (inactive) | 29.1 µM (inactive) | 30.4 µM (inactive) | 64.3 µM (inactive) | 67.5 µM (inactive) | 57.7 µM (inactive) | 45.8 µM (inactive) | > 100 µM (inactive) | > 100 µM (inactive) | 44.9 µM (inactive) | > 100 µM (inactive) | 27.8 µM (inactive) | 45.9 µM (inactive) | 37.4 µM (inactive) | 74.1 µM (inactive) | 95.5 µM (inactive) | 63.7 µM (inactive) |  | 
C/C(CC(=O)Nc1cccc(C)c1C)=N\NC(N)=S | > 100 µM (inactive) | > 100 µM (inactive) | > 100 µM (inactive) | > 100 µM (inactive) | > 100 µM (inactive) | > 100 µM (inactive) | > 100 µM (inactive) | > 100 µM (inactive) | > 100 µM (inactive) | > 100 µM (inactive) | > 100 µM (inactive) | > 100 µM (inactive) | > 100 µM (inactive) | > 100 µM (inactive) | > 100 µM (inactive) | > 100 µM (inactive) | > 100 µM (inactive) | > 100 µM (inactive) |  | 
COc1ccc2c(c1)CN1C(=N2)CSC1c1c(Cl)cccc1[N+](=O)[O-] (stereo not given) | 23.7 µM (inactive) | 27.8 µM (inactive) | 13.6 µM (inactive) | 15.1 µM (inactive) | 21.8 µM (inactive) | 18.5 µM (inactive) | 21.3 µM (inactive) | 16.7 µM (inactive) | 22.5 µM (inactive) |  | 17.5 µM (inactive) |  | 11.5 µM (inactive) | 18.3 µM (inactive) | 20 µM (inactive) | 30.5 µM (inactive) | 31.9 µM (inactive) | 31 µM (inactive) | 20.1 µM (inactive) | 
NC1=C2C(Br)=CN([C@@H]3O[C@H](CO)[C@@H](O)[C@@H]3O)C2C(=O)N=N1 (stereo not given in full) | 6.05 µM (inactive) | 3.78 µM (inactive) | 6.67 µM (inactive) | 5.32 µM (inactive) | 15.8 µM (inactive) | 7.73 µM (inactive) | 4.85 µM (inactive) | 2.51 µM (inactive) | 2.28 µM (inactive) | 40.4 µM (inactive) | 1.64 µM (inactive) | 0.811 µM (active) | 0.223 µM (active) | 1.27 µM (inactive) | 16.6 µM (inactive) | 9.04 µM (inactive) | 2.67 µM (inactive) | 3.99 µM (inactive) |  | 
